From US20260232827A1, “ANTIBODY-DRUG CONJUGATES TARGETING NAPI2B AND METHODS OF USE” (Zymeworks BC Inc., priority 2023, published 2026)

Key:
Experiment in all cases: Binding region mapping, flow cytometry on transfected HEK293-6e cells
Details in all cases: 24 hours at 4° C.
[1] = tested on: Construct 3 (chimeric human NaPi2b, region 304-321)
Source text: (§1) NaPi2b constructs containing deletions in the main extracellular loop of human NaPi2b, as well as chimeric NaPi2b/NaPi2c constructs concerning this main loop, were generated.
(§2) As a complementary strategy, two additional constructs were designed in which the relevant region of the main loop was deleted such as to mimic NaPi2c/NaPi2a main extracellular loop (Constructs 6-7 in Table 52.1). Clones were generated at GenScript Biotech (Piscataway, NJ).
(§3) Constructs were expressed in HEK293-6e cells as follows. Cells were maintained under standard culture conditions (37° C./5% CO2) with shaking at 110 rpm for suspension and cultured in FreeStyle™ 293 Expression Medium (Thermo Fisher Scientific, Waltham, MA) supplemented with 1% fetal bovine serum (Thermo Fisher Scientific, Waltham, MA) and 1× Penicillin-Streptomycin (Thermo Fisher Scientific, Waltham, MA). Cells were transfected with clones expressing the constructs listed in Table 52.1, at 1 μg of DNA per 1 million cells, using 293Fectin™ Transfection Reagent (Thermo Fisher Scientific, Waltham, MA) and Opti-MEM™ I Reduced Serum Medium (Thermo Fisher Scientific, Waltham, MA), and incubated for 24 hours under standard culture conditions (37° C./5% CO2/110 rpm). Following transfection, cells were seeded at 50,000 cells/well in conical-bottom 96-well plates and treated with a serial dilution of test antibody for 24 hours at 4° C. to prevent internalization. Cells were treated with final concentrations of all humanized antibodies of 200, 20, or 2 nM. Cells were treated with final concentrations of the reference anti-NaPi2a rabbit antibody of 50, 5, or 0.5 nM. […] Following incubation and washing, fluorescence was detected by flow cytometry on a BD LSRFortessa™ Cell Analyzer (BD Biosciences, Franklin Lake, NJ) with 1,000 minimum events collected per well. […] Background-subtracted AF647 Mean Fluorescence Intensity (MFI) values were calculated by subtracting the average MFI of three technical replicates of unstained (no primary antibody) cells.

[2] = biological target: T1, Construct 6 (human NaPi2b deletion, region 317-333) (Homo sapiens, UniProt O95436, DEL317-333)
T1 construct: host or cells: HEK293-6e
T1 sequence (O95436 with tags, fused parts or gaps DEL317-333): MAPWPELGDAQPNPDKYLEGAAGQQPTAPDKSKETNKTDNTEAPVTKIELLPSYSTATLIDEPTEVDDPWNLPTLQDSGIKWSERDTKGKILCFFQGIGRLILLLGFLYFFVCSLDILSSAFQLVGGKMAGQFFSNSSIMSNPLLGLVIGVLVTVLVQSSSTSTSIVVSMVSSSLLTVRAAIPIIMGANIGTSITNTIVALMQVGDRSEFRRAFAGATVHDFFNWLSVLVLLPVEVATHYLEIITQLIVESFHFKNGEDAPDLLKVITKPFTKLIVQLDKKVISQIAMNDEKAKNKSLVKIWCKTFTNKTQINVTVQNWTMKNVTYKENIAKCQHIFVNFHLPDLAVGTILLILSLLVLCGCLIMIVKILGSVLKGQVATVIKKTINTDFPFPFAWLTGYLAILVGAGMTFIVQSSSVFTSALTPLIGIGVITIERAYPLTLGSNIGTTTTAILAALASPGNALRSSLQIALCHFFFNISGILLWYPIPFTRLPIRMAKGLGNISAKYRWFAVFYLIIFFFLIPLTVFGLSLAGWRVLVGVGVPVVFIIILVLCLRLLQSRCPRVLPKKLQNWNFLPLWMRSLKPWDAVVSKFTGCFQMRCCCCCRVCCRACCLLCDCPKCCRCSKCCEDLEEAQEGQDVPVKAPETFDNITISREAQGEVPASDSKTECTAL
Source text: as §1, §2, §3

[3] = tested on: Construct 4 (chimeric human NaPi2b, region 341-358)
Source text: as §1, §2, §3

[4] = tested on: Construct 2 (chimeric human NaPi2b, region 280-301)
Source text: as §1, §2, §3

[5] = tested on: Construct 1 (chimeric human NaPi2b, region 239-259)
Source text: as §1, §2, §3

[6] = biological target: T2, Construct 7 (human NaPi2b deletion, region 317-326) (Homo sapiens, UniProt O95436, DEL317-326)
T2 construct: host or cells: HEK293-6e
T2 sequence (O95436 with tags, fused parts or gaps DEL317-326): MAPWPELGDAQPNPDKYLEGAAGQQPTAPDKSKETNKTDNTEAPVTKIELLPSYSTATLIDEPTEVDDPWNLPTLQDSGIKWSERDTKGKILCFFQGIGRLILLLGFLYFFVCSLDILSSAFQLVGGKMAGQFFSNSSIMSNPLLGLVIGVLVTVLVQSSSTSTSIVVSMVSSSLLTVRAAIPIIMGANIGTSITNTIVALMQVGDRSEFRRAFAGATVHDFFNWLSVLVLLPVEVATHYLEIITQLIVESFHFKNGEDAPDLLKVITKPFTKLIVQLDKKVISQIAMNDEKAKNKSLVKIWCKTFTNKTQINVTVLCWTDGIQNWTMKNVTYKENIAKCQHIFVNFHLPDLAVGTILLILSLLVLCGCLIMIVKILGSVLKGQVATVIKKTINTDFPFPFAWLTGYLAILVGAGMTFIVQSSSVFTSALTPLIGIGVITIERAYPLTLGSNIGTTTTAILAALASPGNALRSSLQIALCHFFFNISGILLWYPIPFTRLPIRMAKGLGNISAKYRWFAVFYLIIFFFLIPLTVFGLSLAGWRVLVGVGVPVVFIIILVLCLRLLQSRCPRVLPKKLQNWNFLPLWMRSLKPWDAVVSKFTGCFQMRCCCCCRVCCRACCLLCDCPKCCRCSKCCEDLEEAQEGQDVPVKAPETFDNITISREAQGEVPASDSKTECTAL
Source text: as §1, §2, §3

Substance: palivizumab [palivizumab (v21995)]
- Background-Subtracted AF647 Mean Fluorescence Intensity ([1]; antibody 2.0 nM): 19
- Background-Subtracted AF647 Mean Fluorescence Intensity ([1]; antibody 20.0 nM): 39
- Background-Subtracted AF647 Mean Fluorescence Intensity ([1]; antibody 200.0 nM): -5
- Background-Subtracted AF647 Mean Fluorescence Intensity ([2]; antibody 2.0 nM): 11
- Background-Subtracted AF647 Mean Fluorescence Intensity ([2]; antibody 20.0 nM): 1
- Background-Subtracted AF647 Mean Fluorescence Intensity ([2]; antibody 200.0 nM): 2
- Background-Subtracted AF647 Mean Fluorescence Intensity ([3]; antibody 2.0 nM): 1
- Background-Subtracted AF647 Mean Fluorescence Intensity ([3]; antibody 20.0 nM): 22
- Background-Subtracted AF647 Mean Fluorescence Intensity ([3]; antibody 200.0 nM): 12
- Background-Subtracted AF647 Mean Fluorescence Intensity ([4]; antibody 2.0 nM): -69
- Background-Subtracted AF647 Mean Fluorescence Intensity ([4]; antibody 20.0 nM): -64
- Background-Subtracted AF647 Mean Fluorescence Intensity ([4]; antibody 200.0 nM): -30
- Background-Subtracted AF647 Mean Fluorescence Intensity ([5]; antibody 2.0 nM): -30
- Background-Subtracted AF647 Mean Fluorescence Intensity ([5]; antibody 20.0 nM): -27
- Background-Subtracted AF647 Mean Fluorescence Intensity ([5]; antibody 200.0 nM): 12
- Background-Subtracted AF647 Mean Fluorescence Intensity ([6]; antibody 2.0 nM): -34
- Background-Subtracted AF647 Mean Fluorescence Intensity ([6]; antibody 20.0 nM): -85
- Background-Subtracted AF647 Mean Fluorescence Intensity ([6]; antibody 200.0 nM): -97
